Assay results reported in patent publication US10087148B2, “Quinazolines as biogenic amine transport modulators” (THE UNITED STATES OF AMERICA AS REPRESENTED BY THE …, priority 2014, dated 2018).

Target: dopamine transporter (DAT) (Rattus norvegicus (Rat), UniProt P23977)
Assay: [3H]dopamine (DA) uptake inhibition in rat brain (caudate) synaptosomes
Type: biochemical
Conditions: for DA Uptake Emax / EC50: rat caudate synaptosomes, 5 nM [3H]dopamine, mean ± SD
Procedure: Uptake inhibition assay for the dopamine transporter was conducted in rat brain synaptosomes as described elsewhere with minor modifications (Rothman et al., Synapse 39, 32-41 (2001)). Freshly removed caudate was homogenized in 10% ice-cold sucrose with 12 strokes of a hand-held Potter-Elvehjem homogenizer followed by centrifugation at 1000×g for 10 min. The supernatants were saved on ice and used immediately. Transporter activity was assessed using 5 nM [^3H]dopamine. The assay buffer was Krebs-phosphate buffer containing 154.4 mM NaCl, 2.9 mM KCl, 1.1 mM CaCl2, 0.83 mM MgCl2, 5 mM glucose, 1 mg/mL ascorbic acid, and 50 μM pargyline. The selectivity of the uptake assay for DAT was optimized by including 100 nM citalopram and 100 nM desipramine as blockers of SERT and NET in the sucrose solution and assay buffer. Uptake inhibition assays were conducted at 25° C. and were initiated by adding 100 μl of tissue to 900 μL assay buffer containing test drug and [^3H]dopamine. Test drugs were diluted in assay buffer containing 1 mg/mL bovine serum albumin. Nonspecific uptake was measured by incubating in the presence of 10 μM indatraline. The reactions were stopped after 15 minutes by rapid vacuum filtration with a cell harvester (BRANDEL) over GF/B filters (Whatman) presoaked in wash buffer maintained at 25° C. (10 mM Tris-HCl, pH 7.4/150 mM NaCl). Filters were rinsed with 6 mL wash buffer and retained tritium was quantified by a MicroBeta liquid scintillation counter (PerkinElmer) after overnight extraction in 0.6 mL of liquid scintillation cocktail (Cytoscint, ICN). The data from three experiments were pooled and fit to a dose-response curve equation (using Kaleidagraph), to yield an Emax and EC50 value.
All of the test compounds were synthesized as described herein. Next, 8-point dose-response curves were generated for each compound (1-20,000 nM) in the [^3H]DA uptake assay. The data from three experiments were pooled and fit to a dose-response curve equation (using KaleidaGraph; Synergy Software, Reading, Pa.) to yield an Emax and IC50 value. […] Selected compounds were also tested for their ability to inhibit [^3H]WIN35428 binding to rat caudate DAT.

Chain of dopamine transporter (DAT) (P23977 whole entry): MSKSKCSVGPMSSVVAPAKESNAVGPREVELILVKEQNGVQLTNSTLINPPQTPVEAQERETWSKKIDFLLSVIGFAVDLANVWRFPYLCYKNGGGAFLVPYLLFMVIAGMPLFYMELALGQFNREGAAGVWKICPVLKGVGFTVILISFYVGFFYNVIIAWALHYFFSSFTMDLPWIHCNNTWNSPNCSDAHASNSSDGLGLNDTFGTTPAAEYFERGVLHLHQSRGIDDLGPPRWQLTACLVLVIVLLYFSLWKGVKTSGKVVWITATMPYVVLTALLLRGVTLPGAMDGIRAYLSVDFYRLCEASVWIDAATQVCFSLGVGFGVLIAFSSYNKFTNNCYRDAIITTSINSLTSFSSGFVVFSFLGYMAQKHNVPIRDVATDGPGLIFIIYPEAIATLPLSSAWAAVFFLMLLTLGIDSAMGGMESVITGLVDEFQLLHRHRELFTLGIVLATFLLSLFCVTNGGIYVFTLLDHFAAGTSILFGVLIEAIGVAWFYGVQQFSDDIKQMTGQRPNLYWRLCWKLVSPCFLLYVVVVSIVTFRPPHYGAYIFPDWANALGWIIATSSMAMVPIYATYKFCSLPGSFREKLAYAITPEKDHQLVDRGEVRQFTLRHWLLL

Row | Compound | DA Uptake Emax [% I] | EC50 [nM] | Efficacy of [3H]DA (DAT) uptake inhibition, in words | One-Site Emax ([3H]DA uptake, one-component fit) [% I] | Two-Site Emax-1 ([3H]DA uptake, two-component fit, component 1) [% I] | Two-Site Emax-2 ([3H]DA uptake, two-component fit, component 2) [% I]
1 | Cc1ccc(-c2nc(NCC(c3ccccc3)c3cccc(Cl)n3)c3ccccc3n2)cc1 (stereo not drawn) [Compound 1, N-(2-(6-chloropyridin-2-yl)-2-phenylethyl)-2-(p-tolyl)quinazolin-4-amine] | 100 | 380 | – | – | – | –
2 | CS(=O)(=O)Nc1ccc(-c2nc(NCC(c3ccccc3)c3ccccn3)c3ccccc3n2)cc1 (stereo not drawn) [Compound 2, N-(4-(4-((2-phenyl-2-(pyridin-2-yl)ethyl)amino)quinazolin-2-yl)phenyl)methanesulfonamide] | 90 ± 3 | 50 ± 10 | – | – | – | –
3 | CN(C)c1ccc(-c2nc(NCC(c3ccccc3)c3ccccn3)c3ccccc3n2)cc1 (stereo not drawn) [Compound 3, 2-(4-(dimethylamino)phenyl)-N-(2-phenyl-2-(pyridin-2-yl)ethyl)quinazolin-4-amine] | 91 ± 4 | 22 ± 6 | – | – | – | –
4 | CN(C)c1ccc(-c2nc(NCC(O)(c3ccccc3)c3ccccc3)c3ccccc3n2)cc1 [Compound 5, 2-((2-(4-(dimethylamino)phenyl)quinazolin-4-yl)amino)-1,1-diphenylethanol] | 74 ± 2 | 6.7 ± 1.4 | – | – | – | –
5 | CS(=O)(=O)Nc1ccc(-c2nc(NCC(c3ccccc3)C3CCCCC3)c3ccccc3n2)cc1 (stereo not drawn) [Compound 6, N-(4-(4-((2-cyclohexyl-2-phenylethyl)amino)quinazolin-2-yl)phenyl)methanesulfonamide] | 75 ± 2 | 16 ± 2 | – | – | – | –
6 | CN(C)c1ccc(-c2nc(NCC(c3ccccc3)C3CCCCC3)c3ccccc3n2)cc1 (stereo not drawn) [Compound 7, N-(2-cyclohexyl-2-phenylethyl)-2-(4-(dimethylamino)phenyl)quinazolin-4-amine] | 71 ± 3 | 46 ± 10 | – | – | – | –
7 | CS(=O)(=O)Nc1ccc(-c2nc(NCC(c3ccccc3)c3ncccn3)c3ccccc3n2)cc1 (stereo not drawn) [Compound 8, N-(4-(4-((2-phenyl-2-(pyrimidin-2-yl)ethyl)amino)quinazolin-2-yl)phenyl)methanesulfonamide] | 88 ± 3 | 477 ± 75 | – | – | – | –
8 | CN(C)c1ccc(-c2nc(NCC(c3ccccc3)c3ncccn3)c3ccccc3n2)cc1 (stereo not drawn) [Compound 9, 2-(4-(dimethylamino)phenyl)-N-(2-phenyl-2-(pyrimidin-2-yl)ethyl)quinazolin-4-amine] | 91 ± 3 | 117 ± 22 | – | – | – | –
9 | CN(C)c1ccc(-c2nc(NCC(c3ccccc3)c3ccncc3)c3ccccc3n2)cc1 (stereo not drawn) [Compound 11, 2-(4-(Dimethylamino)phenyl)-N-(2-phenyl-2-(pyridin-4-yl)ethyl)quinazolin-4-amine] | 77 ± 2 | 13 ± 3 | – | – | – | –
10 | CS(=O)(=O)Nc1ccc(-c2nc(NCC(c3ccccc3)n3ccnc3)c3ccccc3n2)cc1 (stereo not drawn) [Compound 12, N-(4-(4-((2-(1H-imidazol-1-yl)-2-phenylethyl)amino)quinazolin-2-yl)phenyl)methanesulfonamide] | 70 ± 3 | 100 ± 22 | – | – | – | –
11 | CN(C)c1ccc(-c2nc(NCC(c3ccccc3)n3ccnc3)c3ccccc3n2)cc1 (stereo not drawn) [Compound 13, N-(2-(1H-imidazol-1-yl)-2-phenylethyl)-2-(4-(dimethylamino)phenyl)quinazolin-4-amine] | 86 ± 3 | 138 ± 21 | – | – | – | –
12 | CN(C)c1ccc(-c2nc(NCC(c3ccccc3)c3ccc[nH]3)c3ccccc3n2)cc1 (stereo not drawn) [Compound 14, 2-(4-(dimethylamino)phenyl)-N-(2-phenyl-2-(1H-pyrrol-2-yl)ethyl)quinazolin-4-amine] | 77 ± 4 | 5.6 ± 2.1 | – | – | – | –
13 | CS(=O)(=O)Nc1ccc(-c2nc(NCC(c3ccccc3)c3ccc[nH]3)c3ccccc3n2)cc1 (stereo not drawn) [Compound 15, N-(4-(4-((2-phenyl-2-(1H-pyrrol-2-yl)ethyl)amino)quinazolin-2-yl)phenyl)methanesulfonamide] | 63 ± 2 | 43 ± 8 | – | – | – | –
14 | CN(C)c1ccc(-c2nc(NCC(c3ccccc3)N3CCCCC3)c3ccccc3n2)cc1 (stereo not drawn) [Compound 16, 2-(4-(dimethylamino)phenyl)-N-(2-phenyl-2-(piperidin-1-yl)ethyl)quinazolin-4-amine] | 88 ± 4 | 34 ± 9 | – | – | – | –
15 | CS(=O)(=O)Nc1ccc(-c2nc(NCC(c3ccccc3)N3CCCCC3)c3ccccc3n2)cc1 (stereo not drawn) [Compound 17, N-(4-(4-((2-phenyl-2-(piperidin-1-yl)ethyl)amino)quinazolin-2-yl)phenyl)methanesulfonamide] | 83 ± 5 | 62 ± 20 | – | – | – | –
16 | CN(C)c1ccc(-c2nc(NCC(c3ccccc3)N3CCOCC3)c3ccccc3n2)cc1 (stereo not drawn) [Compound 18, 2-(4-(dimethylamino)phenyl)-N-(2-morpholino-2-phenylethyl)quinazolin-4-amine] | 75 ± 5 | 15 ± 7 | partially inhibits | 75 ± 5 | 57 ± 2 | 42 ± 4
17 | CS(=O)(=O)Nc1ccc(-c2nc(NCC(c3ccccc3)N3CCOCC3)c3ccccc3n2)cc1 (stereo not drawn) [Compound 19, N-(4-(4-((2-morpholino-2-phenylethyl)amino)quinazolin-2-yl)phenyl)methanesulfonamide] | 71 ± 4 | 43 ± 13 | – | – | – | –
18 | CS(=O)(=O)Nc1ccc(-c2nc(NCC(c3ccccc3)N3CCCC3)c3ccccc3n2)cc1 (stereo not drawn) [Compound 20, N-(4-(4-((2-phenyl-2-(pyrrolidin-1-yl)ethyl)amino)quinazolin-2-yl)phenyl)methanesulfonamide] | 79 ± 5 | 160 ± 51 | – | – | – | –
19 | CN(C)c1ccc(-c2nc(NCC(c3ccccc3)N3CCCC3)c3ccccc3n2)cc1 (stereo not drawn) [Compound 21, 2-(4-(dimethylamino)phenyl)-N-(2-phenyl-2-(pyrrolidin-1-yl)ethyl)quinazolin-4-amine] | 92 ± 4 | 112 ± 26 | – | – | – | –
20 | CN1CCN(C(CNc2nc(-c3ccc(N(C)C)cc3)nc3ccccc23)c2ccccc2)CC1 (stereo not drawn) [Compound 22, 2-(4-(dimethylamino)phenyl)-N-(2-(4-methylpiperazin-1-yl)-2-phenylethyl)quinazolin-4-amine] | 91 ± 4 | 30 ± 8 | – | – | – | –
21 | CN1CCN(C(CNc2nc(-c3ccc(NS(C)(=O)=O)cc3)nc3ccccc23)c2ccccc2)CC1 (stereo not drawn) [Compound 23, N-(4-(4-((2-(4-methylpiperazin-1-yl)-2-phenylethyl)amino)quinazolin-2-yl)phenyl)methanesulfonamide] | 77 ± 3 | 62 ± 15 | – | – | – | –
22 | CN(C)c1ccc(-c2nc(NCC(c3ccccc3)c3cccnc3)c3ccccc3n2)cc1 (stereo not drawn) [Compound 24, 2-(4-(dimethylamino)phenyl)-N-(2-phenyl-2-(pyridin-3-yl)ethyl)quinazolin-4-amine] | 79 ± 3 | 24 ± 5 | – | – | – | –
